Measured values: PMC7316994, “In Vitro Pharmacological Profile of a New Small Molecule Bradykinin B2 Receptor Antagonist” (Frontiers in Pharmacology, 2020)
Values joined by “and” are separate entries in the source; they are usually repeats but may differ in a detail not shown here. Identical values can stand only once.

What was measured:
Neurokinin NK2 = biological target: T1, Neurokinin NK2 (Homo sapiens, UniProt P21452); design: method as in FDA Pharmacology Review Icatibant; conditions: ref FDA Pharmacology Review Icatibant; read-out: IC50, binding to NK2 receptors; cited from earlier work
T1 construct: host or cells: CHO cells
T1 sequence (P21452 1-398): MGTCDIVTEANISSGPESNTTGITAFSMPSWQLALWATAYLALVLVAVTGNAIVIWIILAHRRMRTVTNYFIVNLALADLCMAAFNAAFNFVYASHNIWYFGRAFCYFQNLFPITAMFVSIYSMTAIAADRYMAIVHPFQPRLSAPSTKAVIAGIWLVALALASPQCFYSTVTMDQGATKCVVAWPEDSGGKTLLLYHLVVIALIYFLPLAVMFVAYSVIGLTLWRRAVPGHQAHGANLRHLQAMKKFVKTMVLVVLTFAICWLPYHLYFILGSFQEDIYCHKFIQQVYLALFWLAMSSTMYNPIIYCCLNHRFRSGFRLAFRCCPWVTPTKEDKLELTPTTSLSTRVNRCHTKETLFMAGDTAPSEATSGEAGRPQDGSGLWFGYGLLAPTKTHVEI

[1] = biological target: T2, endogenous human B2 receptor (Homo sapiens, UniProt P30411); experiment: human isolated umbilical vein contractility assay, BK-induced contraction; conditions: for Maximal BK-induced response in absolute force units ± S.E.M.: vehicle: Icatibant 1.90, Compound 1 […]
T2 construct: BK-induced contraction at endogenous human B2 receptor in the umbilical vein model; from tissue; host or cells: human umbilical vein rings (donor cords after elective caesarean section)
T2 sequence (P30411 1-391): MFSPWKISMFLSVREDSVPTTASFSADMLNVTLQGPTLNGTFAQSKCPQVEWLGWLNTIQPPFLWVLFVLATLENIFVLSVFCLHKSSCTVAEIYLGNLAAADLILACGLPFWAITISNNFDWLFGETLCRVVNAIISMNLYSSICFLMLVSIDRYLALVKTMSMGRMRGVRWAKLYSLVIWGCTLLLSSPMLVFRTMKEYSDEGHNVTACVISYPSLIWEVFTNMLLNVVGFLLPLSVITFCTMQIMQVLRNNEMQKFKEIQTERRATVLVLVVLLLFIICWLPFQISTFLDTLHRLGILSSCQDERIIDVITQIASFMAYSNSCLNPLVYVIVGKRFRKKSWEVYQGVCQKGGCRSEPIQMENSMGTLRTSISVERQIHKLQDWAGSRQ

dog B2 receptor = biological target: T3, dog B2 receptor (Canis lupus familiaris, UniProt Q9BDQ4); experiment: Ca^2+ mobilization assay, HEK293T cells; type: cell-based; conditions: Dog; BK at EC80 1.86 nM; n=1; read-out: IC50 (nM) Mean
T3 sequence (Q9BDQ4 1-392): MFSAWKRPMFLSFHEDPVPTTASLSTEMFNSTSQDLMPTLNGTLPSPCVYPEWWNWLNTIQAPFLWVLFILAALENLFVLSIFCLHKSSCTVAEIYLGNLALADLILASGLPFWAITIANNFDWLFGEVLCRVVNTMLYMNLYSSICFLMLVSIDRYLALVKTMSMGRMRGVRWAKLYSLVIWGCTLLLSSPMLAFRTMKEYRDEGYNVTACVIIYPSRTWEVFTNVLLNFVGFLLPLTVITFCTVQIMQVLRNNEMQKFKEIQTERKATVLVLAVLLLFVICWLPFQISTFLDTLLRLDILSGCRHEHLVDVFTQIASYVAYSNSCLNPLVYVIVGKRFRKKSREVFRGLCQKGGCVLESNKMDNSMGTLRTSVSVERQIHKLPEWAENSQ

rat B2 receptor = biological target: T4, rat B2 receptor (Rattus norvegicus, UniProt P25023); experiment: Ca^2+ mobilization assay, HEK293T cells; type: cell-based; conditions: BK at EC80 4.32 nM
T4 construct: host or cells: HEK293T cells
T4 sequence (P25023 1-396): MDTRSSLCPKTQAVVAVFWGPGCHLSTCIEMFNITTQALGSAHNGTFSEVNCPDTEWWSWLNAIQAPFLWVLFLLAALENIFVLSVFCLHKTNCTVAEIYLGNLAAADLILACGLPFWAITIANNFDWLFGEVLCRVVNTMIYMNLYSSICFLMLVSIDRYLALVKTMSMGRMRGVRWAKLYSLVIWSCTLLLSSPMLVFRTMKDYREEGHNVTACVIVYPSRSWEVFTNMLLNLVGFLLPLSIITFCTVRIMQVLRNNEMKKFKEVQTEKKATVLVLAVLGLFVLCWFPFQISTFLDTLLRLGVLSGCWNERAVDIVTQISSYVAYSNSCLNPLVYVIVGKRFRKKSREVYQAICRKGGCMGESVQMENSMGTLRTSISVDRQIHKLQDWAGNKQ

mouse B2 receptor = biological target: T5, mouse B2 receptor (Mus musculus, UniProt P32299); experiment: Ca^2+ mobilization assay, HEK293T cells; type: cell-based; conditions: BK at EC80 0.53 nM, n=1
T5 construct: host or cells: HEK293T cells
T5 sequence (P32299 1-392): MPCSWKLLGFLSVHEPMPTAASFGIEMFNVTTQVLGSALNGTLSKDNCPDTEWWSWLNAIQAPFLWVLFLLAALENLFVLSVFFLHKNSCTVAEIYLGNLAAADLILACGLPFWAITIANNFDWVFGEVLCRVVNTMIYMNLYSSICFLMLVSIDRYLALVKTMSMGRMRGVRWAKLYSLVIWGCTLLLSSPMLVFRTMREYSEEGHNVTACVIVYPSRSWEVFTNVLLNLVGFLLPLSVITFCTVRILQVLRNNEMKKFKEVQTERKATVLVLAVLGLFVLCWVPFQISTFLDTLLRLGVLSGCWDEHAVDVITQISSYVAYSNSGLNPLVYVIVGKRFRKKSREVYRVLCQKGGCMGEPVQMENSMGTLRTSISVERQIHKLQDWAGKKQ

kinin B1 receptor = biological target: T6, kinin B1 receptor (Homo sapiens, UniProt P46663); experiment: umbilical vein, Sar-[D-Phe^8]des-Arg^9-BK-induced contraction; conditions: 1 μM
T6 construct: during the 3-hour incubation period to upregulate the expression of B1; from tissue; host or cells: human umbilical vein rings pre-incubated with interleukin-1β and tumor necrosis factor-α
T6 sequence (P46663 whole entry): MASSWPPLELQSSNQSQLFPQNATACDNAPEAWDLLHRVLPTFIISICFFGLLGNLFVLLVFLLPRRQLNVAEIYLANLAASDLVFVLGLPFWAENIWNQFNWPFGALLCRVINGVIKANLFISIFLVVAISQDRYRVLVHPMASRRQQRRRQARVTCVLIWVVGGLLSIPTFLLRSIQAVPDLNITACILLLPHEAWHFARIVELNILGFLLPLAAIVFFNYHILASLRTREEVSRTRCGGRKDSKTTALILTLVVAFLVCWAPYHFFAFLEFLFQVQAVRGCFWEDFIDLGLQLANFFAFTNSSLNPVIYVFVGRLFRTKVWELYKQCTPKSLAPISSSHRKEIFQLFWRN

[2] = biological target: T2, endogenous human B2 receptor; design: method as in Marceau et al., 1994; conditions: umbilical vein; ref Marceau et al., 1994; cited from earlier work
[3] = biological target: T7, cynomolgus monkey B2 receptor (Macaca fascicularis, UniProt A0A7N9CWN6); experiment: cell-based
T7 sequence (A0A7N9CWN6 1-391): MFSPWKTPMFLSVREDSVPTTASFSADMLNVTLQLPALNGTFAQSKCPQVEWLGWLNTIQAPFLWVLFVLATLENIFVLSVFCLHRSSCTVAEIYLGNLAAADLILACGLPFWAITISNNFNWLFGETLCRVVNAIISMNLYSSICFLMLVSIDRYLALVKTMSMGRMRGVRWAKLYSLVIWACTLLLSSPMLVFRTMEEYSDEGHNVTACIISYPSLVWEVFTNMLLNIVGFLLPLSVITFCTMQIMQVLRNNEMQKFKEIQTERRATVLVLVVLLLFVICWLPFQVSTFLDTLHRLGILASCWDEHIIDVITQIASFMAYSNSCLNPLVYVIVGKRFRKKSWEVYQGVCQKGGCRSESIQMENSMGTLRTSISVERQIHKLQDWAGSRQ

## NC(N)=NCCC[C@@H](N)C(=O)N[C@@H](CCCN=C(N)N)C(=O)N1CCC[C@H]1C(=O)N1C[C@H](O)C[C@H]1C(=O)NCC(=O)N[C@@H](Cc1cccs1)C(=O)N[C@@H](CO)C(=O)N1Cc2ccccc2C[C@@H]1C(=O)N1[C@H](C(=O)N[C@@H](CCCN=C(N)N)C(=O)O)C[C@@H]2CCCC[C@@H]21 [icatibant, reference compound]
Neurokinin NK2
  IC50: 420 nM
[1]; BK concentration-effect curves, Emax
  type of antagonism of BK: competitive (surmountable) antagonist
[1]; Schild regression, Pharm/PCS, ± S.E.M. where given
  Schild plot slope: -0.85 ± 0.16 and −0.85
[1]; antagonist 10 nM, Compound 2 2.25, Compound 3 1.52
  Maximal BK-induced response in absolute force units ± S.E.M.: 1.47 ± 0.19 grams-weight
[1]; antagonist 100 nM, Compound 2 2.25, Compound 3 1.52
  Maximal BK-induced response in absolute force units ± S.E.M.: 1.50 ± 0.27 grams-weight
[1]; antagonist 1 μM, Compound 2 2.25, Compound 3 1.52
  Maximal BK-induced response in absolute force units ± S.E.M.: 1.40 ± 0.22 grams-weight
[1]; antagonist 10 μM, Compound 2 2.25
  Maximal BK-induced response in absolute force units ± S.E.M.: 1.27 ± 0.17 grams-weight
[1]; potency from pA2
  pA2 value converted into nM: 8.71 nM and 8.7 nM
Dog B2 receptor
  IC50: 87.1 nM
Rat B2 receptor
  IC50: 37.4 nM
Mouse B2 receptor
  IC50: 15.5 nM
Kinin B1 receptor
  effect on contraction by B1 receptor agonist Sar-[D-Phe^8]des-Arg^9-BK: failed to antagonize
[2]
  pA2, previously reported value: 8.2
[3]
  IC50: 17.1 nM
  Kb: 4.06 nM
